# US20100105772A1, “USE OF NOVEL LIPID MEDIATORS TO INHIBIT ANGIOGENESIS” (priority 2008, published 2010)
# Key:
# neutrophils = assay: Neutrophil infiltration in suture-induced inflamed corneas (NIMP-R14 staining of cross-sections); assay type: in vivo, mice; conditions: for neutrophils per section: n=3, mean±SEM
# Method: (§1) ATLa or vehicle was subconjunctivally injected at 0 h and 48 h after suture placement. For each compound treatment, eyes were enucleated from a group of mice at 24 h, and another group at 72 h after suture placement (3 eyes per group). Cross-sections were stained with anti-neutrophil (NIMP-R14) or anti-macrophage (F4/80) Ab, and 12 sections were used to enumerate the respective leukocyte populations. Results represent the mean (±SEM) of 3 eyes per group (*P<0.05, **P<0.001 vs vehicle-treated group, t-test), and data are representative of two independent experiments.
# (§2) The standard model for induction of inflammatory corneal NV is associated with development of intrastromal vessels in close association with a mixed-cell (primarily neutrophilic) infiltrate.^14,15 Three interrupted sutures (11-0 nylon, Sharpoint; Vanguard, Houston, Tex.) were placed intrastromally with two stromal incursions extending over 120° of the corneal circumference each to induce inflammatory corneal NV, which is also associated with significant LA, as described previously.^14 The corneas were followed by slit-lamp biomicroscopy for corneal NV development. NV was graded between 0 and 3, with increments of 0.5, using a grid system per each corneal quadrant based on the centripetal extent of the neovascular branches from the limbus. Scores for each quadrant then summed to derive the NV index (range 0 to 12) for each eye, as previously described.^14
# (§3) BALB/c mice were randomized to receive ATLa, or vehicle (normal saline) by subconjunctival injection in a masked fashion after suture or hydron pellet placement. […] ATLa was synthesized as described previously.^20 The physical properties were monitored routinely via LC/MS/MS matching the reported biological and physical properties prior to analysis in present experiments.
# (§4) Full thickness corneal tissue or 8 μm-frozen sections were fixed in acetone for 15 minutes at room temperature. […] Finally, the samples were covered with mounting medium (Vector Laboratories, Burlingame, Calif.) and analyzed by epifluorescence microscopy (Eclipse E800; Nikon, Tokyo, Japan). […]
# macrophages = assay: Macrophage infiltration in suture-induced inflamed corneas (F4/80 staining of cross-sections); assay type: in vivo, mice; conditions: 72 h after suture placement
# Method: as §1, with “experiments. […]” for “experiments.”
# as §3, §4
# IL-1β mRNA = assay: Real-time PCR of IL-1β mRNA in suture-induced inflamed corneas; assay type: in vivo, mice; conditions: 24 h and 72 h after suture placement; vs vehicle-treated controls
# Method: (§5) FIG. 3. Lipoxin Reduces Cytokine mRNA Expressions in Inflamed Corneas. ATLa or vehicle was subconjunctivally injected at 0 h and 48 h after suture placement. For each compound treatment, corneas were harvested from a group of mice at 24 h, and another group at 72 h after suture placement, as well as from normal untreated control corneas (6 corneas per group). mRNA levels of inflammatory cytokines (including IL-1α, IL-1β, and TNF-α) were determined by real-time PCR. Data were normalized to GAPDH mRNA and values were expressed as the fold change over normal control corneas. Results represent the mean (±SEM) of three samples per group (each sample consisted of 2 pooled corneas), and data are representative of two independent experiments (*P<0.05, **P<0.001 vs vehicle-treated group, t-test). […]
# as §3, with “experiments. […]” for “experiments.”
# TNF-α mRNA = assay: Real-time PCR of TNF-α mRNA in suture-induced inflamed corneas; assay type: in vivo, mice; conditions: vs vehicle
# Method: as §5
# as §3, with “experiments. […]” for “experiments.”
# IL-1α mRNA = assay: Real-time PCR of IL-1α mRNA in suture-induced inflamed corneas; assay type: in vivo, mice; conditions: 24 h and 72 h after suture placement; vs vehicle
# Method: as §5
# as §3, with “experiments. […]” for “experiments.”
# mouse IL-1 beta = assay: ELISA of IL-1 beta protein in homogenates of suture-induced inflamed corneas; assay type: in vivo, mice
# Method: FIG. 7. ATLa Regulates IL-1β. Mice were treated at Oh and 48 h after suture-placement with ATLa or vehicle. Whole corneas were excised at 72 h, and subsequently freeze-thawed 3 times. Cornea was then homogenized using a pellet pestile motor with additional protease inhibitors. Homogenates were centrifuged at 12,000 rpm for 5 minutes and the supernatant was assayed for mouse IL-1 beta via ELISA (eBioscience, USA) according to the manufacturer's instructions.
# as §2, with “NV was graded between 0 and 3, with increments of 0.5, using a grid system per each corneal quadrant based on the centripetal extent of the neovascular branches from the limbus. Scores for each quadrant then summed to derive the NV index (range 0 to 12) for each eye, as previously described.^14” left out
# as §3
# VEGF-A mRNA = assay: Real-time PCR of VEGF-A mRNA in suture-induced inflamed corneas; assay type: in vivo, mice; conditions: 24 h and 72 h after suture placement; vs vehicle-treated group
# Method: (§6) FIG. 4. The Impact of Lipoxin on the mRNA Expression of VEGFs and VEGFRs in Inflamed Corneas. ATLa or vehicle was subconjunctivally injected at 0 h and 48 h after suture placement. For each compound treatment, corneas were harvested from a group of mice at 24 h, and another group at 72 h after suture placement, as well as from normal untreated control corneas (6 corneas per group). (A) VEGF ligand species (VEGF-A, VEGF-C, VEGF-D) and (B) VEGFRs (VEGFR2 and VEGFR3) were tested by real-time PCR and normalized to GAPDH mRNA. Values are expressed as fold change over the normal control cornea. Results represent the mean (±SEM) of three samples per group (each sample consisted of 2 pooled corneas), and the data are representative of two independent experiments (*P<0.05, **P<0.001, ***P<0.0005, vs vehicle-treated group, t-test). […]
# as §3, with “experiments. […]” for “experiments.”
# VEGF-C mRNA = assay: Real-time PCR of VEGF-C mRNA in suture-induced inflamed corneas; assay type: in vivo, mice; conditions: 24 h and 72 h after suture placement; vs vehicle-treated group
# Method: as §6
# as §3, with “experiments. […]” for “experiments.”
# VEGFR-2 mRNA = assay: Real-time PCR of VEGFR-2 mRNA in suture-induced inflamed corneas; assay type: in vivo, mice; conditions: 24 h and 72 h after suture placement; vs vehicle-treated group
# Method: as §6
# as §3, with “experiments. […]” for “experiments.”
# VEGF-D mRNA = assay: Real-time PCR of VEGF-D mRNA in suture-induced inflamed corneas; assay type: in vivo, mice; conditions: after suture placement; vs vehicle-treated controls
# Method: as §6
# as §3, with “experiments. […]” for “experiments.”
# VEGFR-3 mRNA = assay: Real-time PCR of VEGFR-3 mRNA in suture-induced inflamed corneas; assay type: in vivo, mice; conditions: after suture placement; vs vehicle-treated controls
# Method: as §6
# as §3, with “experiments. […]” for “experiments.”
# [1] = tested on: suture-induced corneal NV (HA and LA); assay: Suture-induced inflammatory corneal angiogenesis (slit-lamp NV score, blood and lymphatic vessel density); assay type: in vivo, mice
# Method: FIG. 5. Suture-induced Corneal HA is Reduced with Lipoxin. ATLa or vehicle was subconjunctivally injected every 48 h from 0 to 14 days after suture placement. A. In a masked fashion, corneal NV was scored biomicroscopically with a slit-lamp using a grid system. Values are expressed as the mean (±SEM) of 6 corneas. B. Whole corneal tissues were harvested on day 14 and double-stained with anti-CD31 (green) and anti-LYVE-1 (red) for epifluorescence microscopy (20× magnification). C. The density of blood vessels (CD31^high/LYVE-1^−) or lymphatic vessels (CD31^lowLYVE-1^high) covering the cornea was analyzed. Values are expressed as the mean (±SEM) of 6 corneas of per treatment group (**P<0.001 vs vehicle-treated group, t-test), and the data are representative of two independent experiments. […]
# as §3, §4
# To quantify corneal angiogenesis, digital pictures of corneal flat-mounts were taken using an image analysis system (Spot Image Analysis, Diagnostic Instruments, Sterling Heights, Mich.). The areas covered by CD31^high/LYVE-1^−-vessels (blood vessels) or CD31^lowLYVE-1^high vessels (lymphatics) were measured morphometrically using NIH Image J software (version 1.34s; http://rsb.info.nih.gov/ij). […]
# [2] = tested on: IL-1β-induced corneal HA and LA; assay: Corneal micropocket assay with IL-1β pellets (vessel density); assay type: in vivo, mice; conditions: IL-1β micropellet, day 7
# Method: (§7) FIG. 6. ATLa Regulate IL-1β- and VEGF-A-induced Corneal HA and LA. Hydron pellets containing IL-1β or VEGF-A were implanted into the corneas on day 0. ATLa or vehicle was subconjunctivally injected every 48 h from 0 to 7 days after pellet implantation (4 corneas per treatment, for each pellet-type). A. Slit-lamp examination was performed on day 7 and representative images are shown. B. The density of blood vessels (CD31^high/LYVE-1^−) or lymphatic vessels (CD31^lowLYVE-1^high) covering each cornea was analyzed. Values are expressed as the mean (±SEM) of each treatment group (4 corneas per group) and the data are representative of two independent experiments (*P<0.05 vs vehicle-treated group, t-test).
# (§8) The corneal micropocket assay in mice and quantification of the resultant NV has been described previously.^16,17 In brief, 0.3 μl of hydron pellets (IFN Sciences, New Brunswick, N.J.) containing 30 ng of murine IL-1β (R&D Systems, Minneapolis, Minn.) or 200 ng of VEGF-A (gift from BRB Preclinical Repository, National Cancer Institute) were prepared and implanted into the corneal stroma of male BALB/c mice. After 7 days the animals were sacrificed and the corneas were harvested for quantitative analysis of HA and LA.
# (§9) BALB/c mice were randomized to receive ATLa, or vehicle (normal saline) by subconjunctival injection in a masked fashion after suture or hydron pellet placement. […]
# [3] = tested on: VEGF-A-induced corneal HA and LA; assay: Corneal micropocket assay with VEGF-A pellets (vessel density); assay type: in vivo, mice; conditions: VEGF-A micropellet, day 7
# Method: as §7, §8, §9
# [4] = tested on: macrophage phagocytosis (e.g. of apoptotic neutrophils); conditions: reference 26; cited from earlier work
# EC = conditions: cited from earlier work
# [5] = stable analog of LXA4/ATL; reference 36; cited from earlier work
structure (smiles),measurement,setting,value
"COC(=O)CCC[C@H](O)[C@H](O)/C=C/C=C/C=C\C=C\[C@H](O)COc1ccc(F)cc1 [ATLa, 15-epi-16-(para-fluoro)-phenoxy-lipoxin A4 methyl ester]",inhibition of neutrophils recruitment into the inflamed corneas,"neutrophils; 24 and 72 h after suture placement, 100 ng/10 μl subconjunctival at 0 h and 48 h, vs vehicle",~30%
same,neutrophils per section,neutrophils; 24 h after suture placement,53±1 cells/section
same,neutrophils per section,neutrophils; 72 h after suture placement,34±5 cells/section
same,macrophages per section,"macrophages; n=3, mean±SEM",46±5 cells/section
same,reduction in macrophage infiltration,macrophages; vs vehicle control group,25-40%
same,reduction in the increase of IL-1β expression levels (mRNA),IL-1β mRNA,more than 50%
same,increase in TNF-α expression (mRNA),TNF-α mRNA; 24 h after suture placement,significantly suppressed
same,increase in TNF-α expression (mRNA),TNF-α mRNA; 72 h after suture placement,not at 72 h
same,expression of IL-1α (mRNA),IL-1α mRNA,not significantly altered
same,IL-1 beta in corneas,"mouse IL-1 beta; ELISA of corneal homogenate supernatant, 72 h, treated at 0 h and 48 h, n=4",21.3 ± 0.8 pg/mL
same,decrease in IL-1β protein level,"mouse IL-1 beta; ELISA, 72 h after suture placement, vs vehicle-treated group",70%
same,VEGF-A mRNA expression,VEGF-A mRNA,lower
same,VEGF-C mRNA expression,VEGF-C mRNA,lower
same,VEGFR-2 mRNA expression,VEGFR-2 mRNA,lower
same,VEGF-D mRNA expression,VEGF-D mRNA,not significantly altered
same,VEGFR-3 mRNA expression,VEGFR-3 mRNA,not significantly altered
same,"angiogenic response (growth of corneal neovessels, slit lamp biomicroscopy)","[1]; 2-week time course, injection every 48 h, vs vehicle control",significant suppression
same,BV density (CD31high/LYVE-1−),"[1]; day 14 after suture placement, n=6, mean±SEM",8.26±0.63%
same,density of lymphatic vessels (CD31low LYVE-1high),"[1]; day 14 after suture placement, vs vehicle controls",not observed
same,BV density,"[2]; n=4, mean±SEM",16.1±3.0%
same,LA stimulated by IL-1β,[2]; vs vehicle,no significant reduction
same,BV density,"[3]; n=4, mean±SEM",5.9±0.4%
same,LA stimulated by VEGF-A,[3]; vs vehicle,no significant reduction
same,macrophage phagocytosis,[4],increase
same,EC adhesion,"EC; VEGF-A-induced angiogenesis, references 37, 38",inhibition
same,VEGF-A-induced EC proliferation,EC; reference 39,suppression
same,local inactivation (stability),[5],resists local inactivation
